Results from patent publication US10238688B2, “Combination therapies for bladder cancer” (GENEDIA BIOTECH CO. LTD., priority 2015, dated 2019).

Assays:
Type in all cases: cell-based, human
EJ = experiment: MTT cell survival / IC50, EJ cells; details: for Cell survival (%): Table S3, ng/ml: Pi 40, Pa 160, EH 250, Ci 1500, Mi 200, 1=Ci/Mi, 2=EH/Ci/Mi, 3=Pa/Ci/Mi, 4=Pi/Ci/Mi; for Single drug 4X Cell Survival (%): ng/ml: EH 1000, Ci 6000, Mi 800, Pi 160, Pa 640, Ge 20, EH/Ci/Mi regimen
Experimental: The clinical grade of the chemotherapeutics (NCI Dictionary of Cancer Terms) was provided by the First Affiliated Hospital of Harbin Medical University: Pirarubicin (Pi, Wanle, Shenzhen), Paclitaxel (Pa, Taiji, Sichuan), Adriamycin (Ad, Pfizer, Jiangsu), Epirubicin Hydrochloride (EH, Haizheng, Zhejiang), Hydroxycamptothecin (Hy, Lishizhen, Hubei), Cisplatin (Ci, Haosen, Jiangsu), Gemcitabine (Ge, Haosen, Jiangsu) and Mitomycin (Mi, Haizheng, Zhejiang). The drug induced cell death was determined by a thiazolyl […] (MTT, 490 nm reading) based cell proliferation assay in the cultured cells following treatment by various concentrations of drugs for 72 hours. The relative chemoresistance to each drug of all cell lines was calculated with the lowest IC50 as a reference. The overall chemoresistance of each cell line was described as “chemoresistance index”, the numerator of the total relative IC50 to all the drugs over the number of drugs to rank the overall resistance state of each cell line to the six chemotherapeutics collectively.
The relative IC50 (fold) of each drug of all nine cell lines was normalized to the lowest IC50 in the most sensitive cell line (FIG. 2G), to describe the single drug resistance of cell lines. The overall chemoresistance of each cell line, a “chemoresistance index” (the numerator of the total relative IC50 over the number of drugs) (FIG. 2G) were calculated to rank the overall resistance state of each cell line to this six chemotherapeutics.
Twenty six-drug combinations at the indicated doses were initially generated through a random number generator (using MATLAB MathWorks©, Natick, Mass., U.S.) (The upper half of Table 1). The cell survival (% over the not drug control) of treated cells was determined and then used for a calculation of the average cumulative cell survival (%, ACS: the sum of cell survival (%) per combination divided by the number of cell lines tested). ACS<30% was used to separate the effective from the not-effective combinations.

Notch pathway = experiment: Cignal Finder dual-luciferase pathway reporter, Notch; design: key to Relative activity, Notch reporter: firefly/renilla ratio, background (negative control) subtracted; details: for Relative activity, Notch reporter: luc/Renluc relative to negative control reporter, single drug at 4 folds vs EH/Ci/Mi combination;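 on digitalized pathway activity, Notch: code −1 means repressed below 0.5-fold of 5637 cells or no-drug control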
Experimental: (§1) The pathway analysis was performed with Qiagen's Cignal Finder Pathway Reporter Array systems according to the manufacturer's instructions. The pathway-focused dual-luciferase reporter construct was a mixture of an inducible transcription factor responsive firefly luciferase reporter and constitutively expressing renilla construct. Transcriptional response element (TRE) sequence response elements to each specific transcriptional factor triggered by the different signaling pathways are positioned before the TATA box of firefly luciferase reporter gene. The extent of activity of the reporter reflects the level of activity of the particular signaling pathway. CMV controlled renilla expression vector is co-transfected into the cell as an internal control. Non-inducible reporter construct that lacks the transcriptional factor binding sequence and could not be induced by any transcription factors is used as a negative control. Cells transfected with CMV directed firefly luciferase reporter gene serve as a positive control. Briefly, cells seeded in 6-well plates were transfected with Cignal finder pathway arrays according to the manufacturer's instructions (Qiagen). Then cells were seeded onto 96-well plates. Ci (6000 ng/mL), Mi (800 ng/mL), or EH (1000 ng/mL) and Ci/Mi/EH combination (Ci, 1500 ng/mL, Mi, 800 ng/mL and EH, 1000 ng/m L) were then added to the cells 24 h post-transfection. After 6 h of incubation with the different drugs at 37° C., cells were lysed and a dual luciferase assay (for firefly and renilla luciferase) was performed using a PromegaGloMax 20/20 illuminometer. The firefly luciferase activities were normalized over the renilla luciferase activities after background activity determined by luciferase activities of negative controls was subtracted. A triple test of cell survival under these drug doses was also performed by MTT assay following 18 h incubation at 37° C. […]

Wnt pathway = experiment: Cignal Finder dual-luciferase pathway reporter, Wnt; design: key to Relative activity, Wnt reporter: firefly/renilla ratio, background (negative control) subtracted; details: for Relative activity, Wnt reporter: luc/Renluc relative to negative control reporter, single drug at 4 folds vs EH/Ci/Mi combination;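 on digitalized pathway activity, Wnt: code −1 means repressed below 0.5-fold of 5637 cells or no-drug control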
Experimental: as §1

[1] = system: DNA Damage response pathway; experiment: Cignal Finder dual-luciferase pathway reporter, DNA Damage response (5637, Biu87, UM-UC-3, H-bc, SV-HUC-1); design: key to Relative activity, DNA Damage reporter: firefly/renilla ratio, background (negative control) subtracted; details: for Relative activity, DNA Damage reporter: luc/Renluc relative to negative control reporter, single drug at 4 folds vs EH/Ci/Mi combination
Experimental: as §1, with “Ci (6000 ng/mL), Mi (800 ng/mL), or EH (1000 ng/mL) and Ci/Mi/EH combination (Ci, 1500 ng/mL, Mi, 800 ng/mL and EH, 1000 ng/m L) were then added to the cells 24 h post-transfection.” left out

SMILES | Cell survival (%) (EJ) | Single drug 4X Cell Survival (%) (EJ) | relative drug trigged pathway activity over the no-drug level, Notch (Notch pathway; 5637 cells) | Relative activity, Notch reporter (Notch pathway; 5637 cells) | relative drug trigged pathway activity over the no-drug level, Notch (Notch pathway; Biu87 cells) | Relative activity, Notch reporter (Notch pathway; Biu87 cells) | relative drug trigged pathway activity over the no-drug level, Notch (Notch pathway; H-bc cells) | Relative activity, Notch reporter (Notch pathway; H-bc cells) | digitalized pathway activity, Notch (Notch pathway; SV-HUC-1 cells) | relative drug trigged pathway activity over the no-drug level, Notch (Notch pathway; SV-HUC-1 cells) | Relative activity, Notch reporter (Notch pathway; SV-HUC-1 cells) | Relative activity, Notch reporter (Notch pathway; UM-UC-3 cells) | relative drug trigged pathway activity over the no-drug level, Notch (Notch pathway; Um-Uc-3 cells) | digitalized pathway activity, Wnt (Wnt pathway; 5637 cells) | relative drug trigged pathway activity over the no-drug level, Wnt (Wnt pathway; 5637 cells) | Relative activity, Wnt reporter (Wnt pathway; 5637 cells) | relative drug trigged pathway activity over the no-drug level, Wnt (Wnt pathway; Biu87 cells) | Relative activity, Wnt reporter (Wnt pathway; Biu87 cells) | digitalized pathway activity, Wnt (Wnt pathway; H-bc cells) | relative drug trigged pathway activity over the no-drug level, Wnt (Wnt pathway; H-bc cells) | further results
N.N.[Cl][Pt][Cl] [Ci, (SP-4-2)-diamminedichloroplatinum(II)] | 32.34% | 22.36% | 1.39 fold | 1.41 | 0.5 fold | 2.23 | 0.31 fold | 1.60 | 0 (null (0) if neither of the above holds) | 1.44 fold | 6.20 | 4.99 | 1.01 fold | 0 (null (0) if neither of the above holds) | 1.14 fold | 1.00 | 0.41 fold | 0.69 | 0 (null (0) if neither of the above holds) | 0.78 fold | digitalized pathway activity, Notch (Notch pathway; 5637 cells): 0 (null (0) if neither of the above holds); digitalized pathway activity, Notch (Notch pathway; UM-UC-3 cells): 0 (null (0) if neither of the above holds); Relative activity, Wnt reporter (Wnt pathway; H-bc cells): 3.14; digitalized pathway activity, Wnt (Wnt pathway; SV-HUC-1 cells): 0 (null (0) if neither of the above holds); relative drug trigged pathway activity over the no-drug level, Wnt (Wnt pathway; SV-HUC-1 cells): 1.25 fold; Relative activity, Wnt reporter (Wnt pathway; SV-HUC-1 cells): 1.55; Relative activity, Wnt reporter (Wnt pathway; UM-UC-3 cells): 1.73; relative drug trigged pathway activity over the no-drug level, Wnt (Wnt pathway; Um-Uc-3 cells): 0.48 fold; relative drug trigged pathway activity over the no-drug level, DNA Damage ([1]; 5637 cells): 2.17 fold; Relative activity, DNA Damage reporter ([1]; 5637 cells): 0.48; digitalized pathway activity, DNA Damage ([1]; Biu87 cells): 0 (null (0) if neither of the above holds); relative drug trigged pathway activity over the no-drug level, DNA Damage ([1]; Biu87 cells): 0.63 fold; Relative activity, DNA Damage reporter ([1]; Biu87 cells): 0.94; relative drug trigged pathway activity over the no-drug level, DNA Damage ([1]; H-bc cells): 1.69 fold; Relative activity, DNA Damage reporter ([1]; H-bc cells): 4.19; relative drug trigged pathway activity over the no-drug level, DNA Damage ([1]; SV-HUC-1 cells): 1.54 fold; Relative activity, DNA Damage reporter ([1]; SV-HUC-1 cells): 3.70; digitalized pathway activity, DNA Damage ([1]; UM-UC-3 cells): 0 (null (0) if neither of the above holds); Relative activity, DNA Damage reporter ([1]; UM-UC-3 cells): 2.38; relative drug trigged pathway activity over the no-drug level, DNA Damage ([1]; Um-Uc-3 cells): 0.68 fold
COc1cccc2c1C(=O)c1c(O)c3c(c(O)c1C2=O)C[C@@](O)(C(=O)CO)C[C@@H]3[C@@H]1C[C@H](N)[C@@H](O)[C@H](C)O1 [EH, (8R,10S)-10-((2S,4S,5R,6S)-4-amino-5-hydroxy-6-methyltetrahydro-2H-pyran-2-yl)-6,8,11-trihydroxy-8-(2-hydroxyacetyl)-1-methoxy-7,8,9,10-tetrahydrotetracene-5,12-dione] | 56.55% | 38.46% | 1.92 fold | 1.95 | 1.34 fold | 5.94 | 1.6 fold | 2.20 | 0 (null (0) if neither of the above holds) | 1.3 fold | 5.60 | 10.16 | 2.05 fold | 0 (null (0) if neither of the above holds) | 1.19 fold | 1.04 | 0.95 fold | 1.57 | 0 (null (0) if neither of the above holds) | 1.03 fold | digitalized pathway activity, Notch (Notch pathway; Biu87 cells): 0 (null (0) if neither of the above holds); digitalized pathway activity, Wnt (Wnt pathway; Biu87 cells): 0 (null (0) if neither of the above holds); Relative activity, Wnt reporter (Wnt pathway; H-bc cells): 1.10; digitalized pathway activity, Wnt (Wnt pathway; SV-HUC-1 cells): 0 (null (0) if neither of the above holds); relative drug trigged pathway activity over the no-drug level, Wnt (Wnt pathway; SV-HUC-1 cells): 1.05 fold; Relative activity, Wnt reporter (Wnt pathway; SV-HUC-1 cells): 1.30; digitalized pathway activity, Wnt (Wnt pathway; UM-UC-3 cells): 0 (null (0) if neither of the above holds); Relative activity, Wnt reporter (Wnt pathway; UM-UC-3 cells): 4.12; relative drug trigged pathway activity over the no-drug level, Wnt (Wnt pathway; Um-Uc-3 cells): 1.15 fold; relative drug trigged pathway activity over the no-drug level, DNA Damage ([1]; 5637 cells): 3.42 fold; Relative activity, DNA Damage reporter ([1]; 5637 cells): 0.75; digitalized pathway activity, DNA Damage ([1]; Biu87 cells): 0 (null (0) if neither of the above holds); relative drug trigged pathway activity over the no-drug level, DNA Damage ([1]; Biu87 cells): 1.04 fold; Relative activity, DNA Damage reporter ([1]; Biu87 cells): 1.58; relative drug trigged pathway activity over the no-drug level, DNA Damage ([1]; H-bc cells): 6.13 fold; Relative activity, DNA Damage reporter ([1]; H-bc cells): 3.99; relative drug trigged pathway activity over the no-drug level, DNA Damage ([1]; SV-HUC-1 cells): 2.5 fold; Relative activity, DNA Damage reporter ([1]; SV-HUC-1 cells): 6.00; Relative activity, DNA Damage reporter ([1]; UM-UC-3 cells): 5.96; relative drug trigged pathway activity over the no-drug level, DNA Damage ([1]; Um-Uc-3 cells): 1.71 fold
